Laboratory results reported in the supplement of paper PMC13380429.

Key:
Settings in all cases: 72 h
[1] = test system: Calu-3; experiment: cell viability relative to DMSO; higher = less toxic
[2] = test system: Vero E6; experiment: as above
[3] = test system: U2OS; experiment: as above
[4] = test system: Caco-2; experiment: as above
[5] = test system: HepG2; experiment: as above
[6] = test system: Calu-3; experiment: drug sensitivity score (DSS) for viability; higher = more toxic; extreme values may be limits of the assay
[7] = test system: Vero E6; experiment: as above
[8] = test system: U2OS; experiment: as above
[9] = test system: Caco-2; experiment: as above
[10] = test system: HepG2; experiment: as above
[11] = test system: Calu-3; experiment: relative viability EC50 (midpoint between 100% and the lowest measured viability); higher = less toxic
[12] = test system: Vero E6; experiment: as above
[13] = test system: HepG2; experiment: as above
[14] = test system: U2OS; experiment: as above

Structure (SMILES) | cell viability ([1]; 1 nM) | cell viability ([1]; 10 nM) | cell viability ([1]; 100 nM) | cell viability ([1]; 1000 nM) | cell viability ([1]; 10000 nM) | cell viability ([2]; 1 nM) | cell viability ([2]; 10 nM) | cell viability ([2]; 100 nM) | cell viability ([2]; 1000 nM) | cell viability ([2]; 10000 nM) | cell viability ([3]; 1 nM) | cell viability ([3]; 10 nM) | cell viability ([3]; 100 nM) | cell viability ([3]; 1000 nM) | cell viability ([3]; 10000 nM) | cell viability ([4]; 1 nM) | cell viability ([4]; 10 nM) | cell viability ([4]; 100 nM) | cell viability ([4]; 1000 nM) | cell viability ([4]; 10000 nM) | cell viability ([5]; 1 nM) | cell viability ([5]; 10 nM) | cell viability ([5]; 100 nM) | cell viability ([5]; 1000 nM) | cell viability ([5]; 10000 nM) | drug sensitivity score [6] | drug sensitivity score [7] | drug sensitivity score [8] | drug sensitivity score [9] | drug sensitivity score [10] | relative viability EC50 [11] | relative viability EC50 [12] | relative viability EC50 [13] | relative viability EC50 [14]
O=C1C2CCN(CC2)C1(CO)CO [PRIMA1] | 105% | 99% | 103% | 87.6% | 95.7% | 87% | 92.6% | 89.6% | 94.2% | 99.5% | 98.8% | 95.7% | 101% | 98.1% | 70% | 95.1% | 91.6% | 102% | 96.3% | 66.9% | 94.5% | 97.6% | 81% | 97.9% | 104% | 0.6 | 0 | 1.6 | 2.1 | 0 | > 10 µM | > 10 µM | > 10 µM | –
O=C(Nc1cccc(Cl)c1)Nc1ncc(CCNc2ncnc3ccsc23)s1 [SNS-314] | – | – | – | – | – | 103% | 103% | 86.3% | 89.9% | 93.2% | 98.5% | 102% | 88.2% | 90.4% | 74.8% | 92.8% | 99% | 90.4% | 85.8% | 69% | 92.8% | 96.8% | 76.3% | 67.5% | 41.6% | – | 1.8 | 1.9 | 2.9 | 9.2 | – | > 10 µM | 0.315 µM | –
CNC(=O)c1ccccc1Nc1cc(Nc2ccc(N3CCOCC3)cc2OC)ncc1C(F)(F)F [VS-4718] | 108% | 97% | 86.4% | 68.3% | 74.5% | 103% | 101% | 85.8% | 69.2% | 54.4% | 98.5% | 94.2% | 95.2% | 82.1% | 35.1% | 102% | 91.8% | 96.4% | 82.5% | 62.5% | 98.6% | 93.2% | 99.1% | 65% | 19.3% | 6.6 | 7 | 6.2 | 3.6 | 9 | – | – | 1.12 µM | 1.5 µM
O=C(CC(c1ccccc1)c1ccccc1)N1CCN(C(c2ccccc2)c2ccccc2)CC1 [Z160] | 104% | 92.8% | 104% | 93.9% | 114% | 93.7% | 99.1% | 94.9% | 99.8% | 100% | 101% | 99% | 99.1% | 97.2% | 88.6% | 99.9% | 103% | 97.1% | 92.9% | 67.8% | 88.7% | 104% | 88.5% | 95.6% | 57.7% | 0 | 0 | 0.1 | 2.6 | 2.9 | > 10 µM | > 10 µM | – | > 10 µM
